This is an account of results in patent publication US20030139469A1, “Use of inhibitors of soluble epoxide hydrolase to inhibit vascular smooth muscle cell proliferation” (THE REGENTS OF THE UNIVERSITY OF CALIFORNIA, priority 2002, published 2003).

“Also recorded” adds a separate entry of the source.

The test system of data set [1] is soluble epoxide hydrolase (sEH). In words: inhibition of soluble epoxide hydrolase. The format is biochemical, human. The source says: Epoxide hydrolases (“EH;” EC 3.3.2.3) are enzymes in the alpha beta hydrolase fold family that add water to 3 membered cyclic ethers termed epoxides. Soluble epoxide hydrolase (sEH) is an enzyme which in endothelial and smooth muscle cells converts EETs to dihydroxy derivatives called dihydroxyeicosatrienoic acids (DHETs). The cloning and sequence of the murine sEH is set forth in Grant et al., J. Biol. Chem. 268(23):17628-17633 (1993). The cloning, sequence, and accession numbers of the human sEH sequence are set forth in Beetham et al., Arch. Biochem. Biophys. 305(1): 197-201 (1993). The evolution and nomenclature of the gene is discussed in Beetham et al., DNA Cell Biol. 14(1):61-71 (1995). Unless otherwise specified, as used herein, the terms “soluble epoxide hydrolase” and “sEH” refer to human sEH. Derivatives of urea are transition state mimetics that form a preferred group of sEH inhibitors. […] Any particular urea derivative or other compound can be easily tested for its ability to inhibit sEH by standard assays, such as the one used in the Examples herein. […] The enzyme also can be detected based on the binding of specific ligands to the catalytic site which either immobilize the enzyme or label it with a probe such as luciferase, green fluorescent protein or other reagent. […]

Data set [2] can be described thus: metabolic stability. The format is in vitro ADME.
Data set [3] relates to soluble epoxide hydrolase (sEH). The conditions noted are these: cited from earlier work.
Data set [4] deals with porcine aortic VSM cells. As to conditions: 14,15-EET 2 μM, chalcone oxide with PDGF and exogenous EETs; cited from earlier work.
Data set [5] concerns spontaneously hypertensive rats. The conditions noted are these: injection; cited from earlier work.

As for `CCCCCCCCCCCCNC(=O)NC12CC3CC(CC(C3)C1)C2` [ADU, N-adamantyl-N′-dodecyl urea], the “activity as an inhibitor of sEH” value in data set [1] was “particularly high activity”. The metabolic stability result in data set [2] is “metabolically stable”. For the compound `O=C(c1ccccc1)C1OC1c1ccc(-c2ccccc2)cc1` (stereo not drawn) [4-phenylchalcone oxide, reference compound], in data set [3], the “in vitro inhibition of epoxide hydrolases” value is recorded as “potent”. The “PDGF-mediated DNA synthesis / mitogenesis” value in data set [4] is reported as “additive increase in mitogenesis”. For `CCCCCC1OC1C/C=C\C/C=C\C/C=C\CCCC(=O)O` (stereo not drawn) [14,15-EET], the “PDGF-mediated DNA synthesis / mitogenesis” value in data set [4] is recorded as “increase PDGF-mediated DNA synthesis”.

Regarding `O=C(NC1CCCCC1)NC1CCCCC1` [DCU, N,N′-dicyclohexylurea], the systemic blood pressure entry in data set [5] is given as “lowering of blood pressure; also recorded: lower systemic blood pressure”.
